Reference: US8669250B2, “Derivatives of aryl-{4-halogeno-4-[aminomethyl]-piperidin-1-yl}-methanone, their method of preparation and their use as medicinal products” (Pierre Fabre Medicament, priority 2009, dated 2014)
“Also recorded” adds a separate entry of the source.

Key:
[1] = system: rats, oxaliplatine-induced allodynia; assay: Oxaliplatine test, von Frey (analgesic activity, pathological pain); format: in vivo; settings: rat, i.p.
Excerpt: (§1) The physiological pain model chosen by the inventors to determine the analgesic activity of the compounds of the invention uses excess nociceptive stimuli (injection of formol) to cause a painful sensation in animal (Eur. J. Pharmacol. 2001, 421, 109). For the so-called pathological pain model in animal, the inventors chose to use pain induced by the injection of a cytotoxic agent such as oxaliplatine (Eur. J. Cancer 2007, 2658).
The rats (Male Sprague Dawley rats (ICO: OFA SD [IOPS], Iffa Credo, France) are tested a first time on the Friday to determine their mechanical sensitivity threshold (von Frey test). They are then given an intra-peritoneal injection (i.p.) of oxaliplatine (anticancer treatment causing neuropathic pain in patients) at a dose of 8 mg/kg. This dose in rat induces neuropathy which translates as mechanical hypersensitivity (allodynia) which develops 3 days after the injection with a peak on day five. For the study of the compounds of the invention, the animals are re-tested on day five, 15 min after administration of the compound via intra-peritoneal route.
The pressure force is then measured (in g) at which withdrawal of the paw of the animals is observed.

[2] = system: rats, formol-induced pain; assay: Formol test (analgesic activity, physiological pain); format: in vivo; settings: rat, i.p.
Excerpt: as §1
The rats (Male Sprague Dawley rats (ICO: OFA SD [IOPS], Iffa Credo, France) are placed in plexiglass observation boxes above an angled mirror so as to facilitate observation of the hind paws. After thirty minutes of habituation, the animals are given an injection of formol diluted to 2.5% on the plantar surface of the right hind paw. The injection of formol produces behavioural responses which occur in two phases:
an acute phase, from 0 to 5 min after injection of the formol, corresponding to stimulation of receptors specialized in the transmission of pain messages to the spinal cord.
a late phase which occurs 20 to 30 min after the injection. This phase corresponds to stimulation of receptors by inflammatory mediators and/or to hyper-excitability of the dorsal horn induced during the first phase. This late phase therefore involves central sensitization.
For the study of the compounds of the invention we selected two expressions of painful behaviour and chose two periods of observation which correspond to the two pain phases (i.e. 0-5 min and 22.5-27.5 min). During these two 5-min periods the animals are observed every 30 seconds and are given scores for the following behaviours: paw licking or not of the injected paw, and lifting or non-lifting of the injected paw. Ten observations give a maximum score of 10 for each parameter for each of the 2 phases. The products of the invention are administered via intraperitoneal route 15 min before the injection of formol.
(§2) Quantification of the effect of the compounds of the invention on the forced swimming tests and on the formol test is conducted by one-factor variance analysis between groups (ANOVA analysis) followed by a multiple comparison test (Dunnett's test) versus control animals. The ED50 value is calculated using Litchfield and Wilcoxon analysis from the percentage of responding animals.
For this test, the animals are observed every 30 seconds during two periods of 5 min. The following behaviours are noted: paw licking or not of the injected paw, and paw lifting or not of the injected paw. Ten observations give a maximum score of 10 for each parameter for each of the 2 phases, measuring either paw lifting or paw licking. This test was also performed by comparison with administration of the vehicle (veh) alone.

5-HT1A receptor = target: T1, 5-HT1A receptor (Rattus norvegicus, UniProt P19327); assay: Affinity for 5-HT1A receptors, shift of (3H)8-OH-DPAT in rat cerebral cortex; format: binding; settings: mean of at least 3 experiments, read-out: 5-HT1A affinity (pKi) (converted)
T1 construct: the cerebral cortex is sampled and homogenized in 20 volumes of buffer; from tissue; host or cells: rat cerebral cortex homogenate (membranes)
T1 sequence (P19327 1-422): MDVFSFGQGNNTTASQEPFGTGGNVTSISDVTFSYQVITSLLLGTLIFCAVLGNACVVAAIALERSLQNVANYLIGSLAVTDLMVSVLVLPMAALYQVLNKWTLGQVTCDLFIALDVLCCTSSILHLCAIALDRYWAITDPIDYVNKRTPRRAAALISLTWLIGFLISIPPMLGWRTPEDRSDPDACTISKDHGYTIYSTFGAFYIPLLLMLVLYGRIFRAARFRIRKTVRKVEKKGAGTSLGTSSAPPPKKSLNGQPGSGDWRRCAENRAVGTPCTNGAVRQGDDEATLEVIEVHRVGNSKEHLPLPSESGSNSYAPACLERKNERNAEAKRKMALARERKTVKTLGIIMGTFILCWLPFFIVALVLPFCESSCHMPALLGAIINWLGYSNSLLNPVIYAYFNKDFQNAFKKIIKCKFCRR
Procedure: (§3) The affinity of the compounds of the invention for the rat 5-HT1A receptor was measured conventionally from competitive experiments with a radiolabelled 5-HT1A agonist. […] This test is widely used since it is predictive of antidepressant action in man. Analgesic activity was determined after intra-peritoneal administration to rats, both with a physiological pain model and a pathological pain model. By physiological pain, the inventors designate pain whose origin is a lesion and/or organic ill-function such as pain caused by excessive nociceptive stimuli.
The in vitro affinity of the compounds of the invention for the 5-HT1A receptors was determined by measuring the shift of (^3H)8-OH-DPAT (agonist of 5HT1A receptors labelled with tritium, TRK 850; 160-240 Ci/mmole).
The study on binding with the 5-HT1A receptor was conducted as described in Naunyn-Schmiedeberg's Arch. Pharmaco. 1991, 343, 106. For these experiments, rat cerebral cortices were used. After unfreezing the brain in Tris-HCl buffer 50 mmol, pH=7.40 at 25° C., the cerebral cortex is sampled and homogenized in 20 volumes of buffer held at 4° C. The homogenate is centrifuged at 39000 g for 10 min, the centrifuge residue is suspended in the same volume of buffer and again centrifuged. After further suspension under the same conditions, the homogenate is incubated for 10 min at 37° C. then again centrifuged. The final residue is suspended in cold reaction buffer Tris-HCl 50 mmol, pH=7.40 at 25° C. containing […] of pargyline, 4 mmol of CaCl2 and 0.10% ascorbic acid. The final concentration of the tissue in the incubation medium is 10 mg/tube.
The reaction tubes contain 0.10 mL of (^3H)8-OH-DPAT (final […]), 0.10 mL of product to be tested 6-7 concentrations and 0.80 mL of tissue. Non-specific binding is defined using […] of 5-HT. The reaction tubes are incubated at 23° C. for 30 min then their content is rapidly vacuum filtered through Whatman GF/B filters, the tubes are rinsed with 2×5 mL of Tris-HCl buffer 50 mmol, pH=7.4 at 25° C. Radioactivity is collected on the filter and analyzed by liquid scintillation by adding 4 mL of scintillating liquid (Emulsifier Safe, Packard). All experiments were performed in triplicate.
The inhibition constants (Ki) of the products of the invention are estimated from shift experiments using the non-linear regression programme RADLIG version 4 by EBDA (Equilibrium Binding Data Analysis Biosoft, Cambridge, UK, Mc Pherson, 1985). The dissociation constant of the radioactive ligand used for calculations is […] for (^3H)8-OH-DPAT. The values of pKi (−log Ki) are given in the form mean±SEM of at least 3 experiments.

[3] = system: rats, forced swimming immobility; assay: Forced swimming test (antidepressant activity); format: in vivo; settings: rat, oral
Procedure: as §3
The rats (Male Sprague Dawley rats (ICO: OFA SD [IOPS], Iffa Credo, France), are placed in a cylinder (45 cm high and 20 cm in diameter) filled with water at 25° C.±0.5 up to a height of 17 cm. This depth allows rats to swim or float without their tail touching the bottom of the cylinder.
24 h before the test day, the rats are placed in the cylinder for 15 min, a lapse of time after which they no longer attempt to escape and remain immobile. On the test day the animals are replaced in the cylinder and the duration of animal immobility is measured by direct observation followed by verification of an audiovisual recording for 5 min. The products of the invention are administered by oral route 60 min before the test. A rat is considered to be immobile if it allows itself to float and only makes small movements to remain on the surface. Two rats are observed at the same time.
as §2

- Ki (5-HT1A receptor): 1.02 nM
Compound: O=C(c1ccc(F)c(Cl)c1)N1CCC(F)(CNCC2CNc3ccccc3O2)CC1 (single isomer, unassigned; (-)) [Compound 1a1, (−)-(3-Chloro-4-fluoro-phenyl)-{4-fluoro-4-[(3,4-dihydro-2H-1,4-benzoxazine-2-methanamino)-methyl]-pipéridin-1-yl}-methanone]
- dose on and after which full analgesia is obtained ([1]; day five after oxaliplatine, von Frey): ≥ 0.04 mg/kg
- effect on allodynia, in words ([1]; dose range): dose-dependent inhibition of allodynia
- ED50 ([2]; ip, 15 min before formol, read-out: ED50, inhibition of paw lifting): 0.05 mg/kg
- effect on paw lifting and paw licking, in words ([2]; acute and late phases): dose-dependent inhibition of the 2 measured parameters; also recorded: Full analgesia is obtained irrespective of the pain phase
- dose on and after which none of the animals remains immobile [3]: ≥ 10 mg/kg
- ED50 ([3]; 60 min before test, read-out: ED50, reduction of immobility time): 0.08 mg/kg
- effect on animal immobility time ([3]; dose range): reducing the animal's immobility time in dose-dependent fashion
